# According to ChEMBL document CHEMBL1201862, “PubChem BioAssay data set” (2004):
# Active and inactive are the calls of the source.
# Key:
# Streptococcus = assay: GAS UMAA2166 growth inhibition – luminescence, BacTiterGlo, counter-screen for streptokinase expression inhibitor project, dose response (AID 1915); type: functional, organism-based;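 further: potency for reduction of bacterial viability or growth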
# Vasopressin V1a receptor = Vasopressin V1a receptor (Homo sapiens, UniProt P37288); assay: Fluorescence-based cell-based high throughput dose response screening assay for agonists of the vasopressin 1 receptor (V1R).; type: functional
# Oxytocin receptor = Oxytocin receptor (Homo sapiens, UniProt P30559); assay: Counterscreen for vasopressin 1 receptor (V1R) agonists: Fluorescence-based cell-based high throughput dose response assay for agonists of the Oxytocin Receptor (OXTR). [Related pubchem assays: 2435 (Primary screen (OXTR agonists in singlicate)), 434964 (Confirmation screen (V1R agonists in triplicate)), 434969 (Counterscreen (OXTR agonists in …; type: functional
# [1] = target: T1, Short transient receptor potential channel 4 (Mus musculus, UniProt Q9QUQ5); assay: calcium entry via TRPC4 opening agents – cell-based, HEK293 TRPC4/mu-opioid, Fluo-4 calcium, dose response (AID 434937); type: functional
# T1 sequence (Q9QUQ5 whole entry): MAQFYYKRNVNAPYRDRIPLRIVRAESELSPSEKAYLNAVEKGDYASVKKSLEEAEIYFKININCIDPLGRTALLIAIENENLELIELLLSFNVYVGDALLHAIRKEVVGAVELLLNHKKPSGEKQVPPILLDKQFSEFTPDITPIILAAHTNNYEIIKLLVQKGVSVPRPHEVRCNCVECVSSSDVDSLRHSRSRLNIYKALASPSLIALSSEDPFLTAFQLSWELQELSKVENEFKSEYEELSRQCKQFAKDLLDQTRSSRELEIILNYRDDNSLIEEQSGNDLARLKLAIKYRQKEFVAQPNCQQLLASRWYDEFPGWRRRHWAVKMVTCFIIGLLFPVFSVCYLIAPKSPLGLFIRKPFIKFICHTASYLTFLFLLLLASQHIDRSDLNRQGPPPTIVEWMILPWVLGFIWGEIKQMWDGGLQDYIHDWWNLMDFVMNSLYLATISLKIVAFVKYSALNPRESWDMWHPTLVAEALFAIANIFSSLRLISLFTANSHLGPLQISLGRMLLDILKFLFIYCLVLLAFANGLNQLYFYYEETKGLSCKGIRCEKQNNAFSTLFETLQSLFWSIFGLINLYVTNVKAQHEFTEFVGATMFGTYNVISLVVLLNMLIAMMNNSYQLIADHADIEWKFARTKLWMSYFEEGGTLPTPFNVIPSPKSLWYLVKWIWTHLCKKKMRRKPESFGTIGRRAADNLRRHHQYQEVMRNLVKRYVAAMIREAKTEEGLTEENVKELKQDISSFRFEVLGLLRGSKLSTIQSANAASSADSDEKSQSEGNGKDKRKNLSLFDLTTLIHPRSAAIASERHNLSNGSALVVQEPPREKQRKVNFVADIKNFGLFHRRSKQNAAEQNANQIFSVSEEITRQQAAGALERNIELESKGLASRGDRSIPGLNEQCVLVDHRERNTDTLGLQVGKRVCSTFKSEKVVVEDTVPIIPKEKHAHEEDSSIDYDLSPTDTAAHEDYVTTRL
# [2] = system: Streptococcus sp. 'group A'; assay: Streptococcus pyogenes SK(-)GAS viability under kanamycin – luminescence, BacTiterGlo, confirmation, counter-screen for streptokinase expression inhibitor project, dose response (AID 1900); type: functional, organism-based
# Estrogen receptor beta [3] = target: T2, Estrogen receptor beta (Homo sapiens, UniProt Q92731);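 further: recombinant ER-beta bound to coactivator SRC1 peptide in presence of estradiol agonist; inhibitors block coactivator peptide binding and lower the FRET signal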
# Estrogen receptor = Estrogen receptor (Homo sapiens, UniProt P03372);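 further: potency for inhibiting coactivator peptide recruitment to the receptor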
# [4] = target: E3 ubiquitin-protein ligase Mdm2 (Homo sapiens, UniProt Q00987); assay: MDM2-luc reporter signal enhancers, multi-concentration potency testing, MDM2 ubiquitin-protein ligase inhibitor program, whole-cell format, luminescence detection, 384-well microplate (AID 1394); type: functional;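 further: MDM2 E3 inhibitors raise luminescence so EC50 is for signal enhancement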
# [5] = HIV-1 Vif–A3G interaction blockers – biochemical, TR-FRET, GST-Vif 1-94, biotin-A3G peptide, dose response retest, primary screen (AID 1117319); type: functional;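 further: TR-FRET signal of purified GST-Vif binding a biotinylated A3G peptide; inhibitors lower the FRET signal by blocking Vif and A3G binding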
# Estrogen receptor beta [6] = target: T2, Estrogen receptor beta; assay: blockers of SRC-3 recruitment to ERβ – biochemical, ELISA, streptavidin-HRP readout, orthogonal assay, confirmation (AID 1060)
# [7] = Luminescence Cell-Based Dose Response HTS to Identify Inhibitors of 5'UTR Stem-Loop Driven Prion Protein mRNA Translation in H4 Neuroglioblastoma Cells. [Related pubchem assays: 1827 (Project Summary), 1813 (Primary HTS)]; type: functional
# [8] = alpha-synuclein stem-loop luciferase translation blockers – H4 neuroglioma cells, luminescence, confirmation (AID 1988); type: functional, cell-based
# Prothrombin = Prothrombin (Bos taurus, UniProt P00735); assay: thrombin protease inhibitors – biochemical, fluorescence polarization, uHTS hits, dose response (AID 602369); type: functional
# [9] = target: Protein-tyrosine kinase 2-beta (Homo sapiens, UniProt Q14289);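 further: potency of inhibitors of PYK2 kinase phosphorylation of poly-GT substrate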
# [10] = target: 26S proteasome non-ATPase regulatory subunit 14 (Homo sapiens, UniProt O00487); assay: inhibition of proteasome subunit RPN11 – biochemical, fluorescence polarization, uHTS hits, confirmation (AID 602368); type: functional
# [11] = Trypanosoma cruzi growth suppression in host cells – NIH3T3 host cells, beta-gal luminescence, confirmation (AID 2044); type: functional, cell-based;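 further: intracellular parasites grown in NIH/3T3 mouse fibroblasts as host cells; luminescent beta-galactosidase reporter signal from transgenic T. cruzi replicating inside host cells; inhibitors lower the luminescence signal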
# [12] = NIH3T3 cell viability loss – ATP luminescence, mouse fibroblasts, counter-screen, dose response (AID 2010); type: functional, cell-based;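 further: cells exposed to compound for about 90 hours before reading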
# [13] = target: 72 kDa type IV collagenase (Homo sapiens, UniProt P08253); assay: Dose Response validation of uHTS RPN11 inhibitor hits using a MMP-2 Fluorescence assay.; type: functional
# 72 kDa type IV collagenase, sequence (P08253 whole entry): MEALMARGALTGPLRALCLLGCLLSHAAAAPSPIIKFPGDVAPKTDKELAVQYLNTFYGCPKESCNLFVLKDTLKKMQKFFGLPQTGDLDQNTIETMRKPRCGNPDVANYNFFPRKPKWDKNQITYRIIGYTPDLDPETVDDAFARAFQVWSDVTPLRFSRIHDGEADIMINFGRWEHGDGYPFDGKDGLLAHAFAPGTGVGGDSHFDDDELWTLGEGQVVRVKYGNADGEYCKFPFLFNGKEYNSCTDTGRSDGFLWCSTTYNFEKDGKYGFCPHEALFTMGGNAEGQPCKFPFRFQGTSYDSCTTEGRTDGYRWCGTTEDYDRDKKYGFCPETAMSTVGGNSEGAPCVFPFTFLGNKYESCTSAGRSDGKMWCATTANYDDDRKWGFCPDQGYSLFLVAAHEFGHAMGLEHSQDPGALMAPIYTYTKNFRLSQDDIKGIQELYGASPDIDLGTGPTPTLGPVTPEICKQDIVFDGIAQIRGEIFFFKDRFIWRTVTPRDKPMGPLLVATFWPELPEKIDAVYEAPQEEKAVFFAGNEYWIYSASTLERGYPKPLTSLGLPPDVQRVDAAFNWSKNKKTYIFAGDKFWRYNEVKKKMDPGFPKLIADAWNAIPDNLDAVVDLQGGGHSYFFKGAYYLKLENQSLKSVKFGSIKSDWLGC
# T2 sequence (Q92731 whole entry): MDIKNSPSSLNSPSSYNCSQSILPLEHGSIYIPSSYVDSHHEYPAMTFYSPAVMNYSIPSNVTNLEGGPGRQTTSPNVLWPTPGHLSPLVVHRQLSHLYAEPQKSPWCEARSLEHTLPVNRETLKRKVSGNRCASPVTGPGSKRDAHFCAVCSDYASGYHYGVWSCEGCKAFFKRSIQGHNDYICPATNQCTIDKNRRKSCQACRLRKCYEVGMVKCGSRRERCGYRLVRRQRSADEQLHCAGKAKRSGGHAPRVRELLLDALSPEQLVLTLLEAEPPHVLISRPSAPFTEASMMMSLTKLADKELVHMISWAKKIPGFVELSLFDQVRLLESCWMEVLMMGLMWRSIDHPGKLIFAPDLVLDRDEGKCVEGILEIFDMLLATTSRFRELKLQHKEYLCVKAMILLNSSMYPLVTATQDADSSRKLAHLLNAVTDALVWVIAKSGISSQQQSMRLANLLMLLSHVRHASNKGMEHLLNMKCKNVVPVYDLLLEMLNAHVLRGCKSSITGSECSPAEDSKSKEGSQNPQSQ
# Estrogen receptor, sequence (P03372 whole entry): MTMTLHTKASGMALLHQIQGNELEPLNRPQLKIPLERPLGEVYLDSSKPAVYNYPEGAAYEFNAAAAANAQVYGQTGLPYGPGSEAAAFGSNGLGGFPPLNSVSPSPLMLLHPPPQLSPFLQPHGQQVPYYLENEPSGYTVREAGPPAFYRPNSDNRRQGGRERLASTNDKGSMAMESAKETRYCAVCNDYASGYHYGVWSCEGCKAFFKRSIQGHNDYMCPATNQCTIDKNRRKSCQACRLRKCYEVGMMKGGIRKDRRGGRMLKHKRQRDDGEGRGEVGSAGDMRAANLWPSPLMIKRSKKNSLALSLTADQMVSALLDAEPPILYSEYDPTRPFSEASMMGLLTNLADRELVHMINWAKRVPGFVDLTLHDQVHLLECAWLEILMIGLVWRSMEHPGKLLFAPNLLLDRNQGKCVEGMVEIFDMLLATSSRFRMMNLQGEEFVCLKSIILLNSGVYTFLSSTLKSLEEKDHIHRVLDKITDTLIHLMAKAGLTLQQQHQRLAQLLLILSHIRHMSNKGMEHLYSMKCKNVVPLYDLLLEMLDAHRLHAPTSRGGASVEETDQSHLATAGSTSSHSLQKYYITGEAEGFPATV
# Vasopressin V1a receptor, sequence (P37288 whole entry): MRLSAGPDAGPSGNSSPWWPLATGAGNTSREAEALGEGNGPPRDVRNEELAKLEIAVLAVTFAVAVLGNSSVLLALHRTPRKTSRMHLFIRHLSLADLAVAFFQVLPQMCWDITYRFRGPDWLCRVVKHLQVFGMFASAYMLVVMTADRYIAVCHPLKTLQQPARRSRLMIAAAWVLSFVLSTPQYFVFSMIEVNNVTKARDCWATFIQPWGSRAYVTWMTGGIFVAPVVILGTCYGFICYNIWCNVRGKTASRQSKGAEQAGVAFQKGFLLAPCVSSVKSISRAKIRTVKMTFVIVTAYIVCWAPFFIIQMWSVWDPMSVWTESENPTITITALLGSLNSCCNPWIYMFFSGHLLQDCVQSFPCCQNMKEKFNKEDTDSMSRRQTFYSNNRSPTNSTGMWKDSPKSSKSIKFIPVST
# Protein-tyrosine kinase 2-beta, sequence (Q14289 whole entry): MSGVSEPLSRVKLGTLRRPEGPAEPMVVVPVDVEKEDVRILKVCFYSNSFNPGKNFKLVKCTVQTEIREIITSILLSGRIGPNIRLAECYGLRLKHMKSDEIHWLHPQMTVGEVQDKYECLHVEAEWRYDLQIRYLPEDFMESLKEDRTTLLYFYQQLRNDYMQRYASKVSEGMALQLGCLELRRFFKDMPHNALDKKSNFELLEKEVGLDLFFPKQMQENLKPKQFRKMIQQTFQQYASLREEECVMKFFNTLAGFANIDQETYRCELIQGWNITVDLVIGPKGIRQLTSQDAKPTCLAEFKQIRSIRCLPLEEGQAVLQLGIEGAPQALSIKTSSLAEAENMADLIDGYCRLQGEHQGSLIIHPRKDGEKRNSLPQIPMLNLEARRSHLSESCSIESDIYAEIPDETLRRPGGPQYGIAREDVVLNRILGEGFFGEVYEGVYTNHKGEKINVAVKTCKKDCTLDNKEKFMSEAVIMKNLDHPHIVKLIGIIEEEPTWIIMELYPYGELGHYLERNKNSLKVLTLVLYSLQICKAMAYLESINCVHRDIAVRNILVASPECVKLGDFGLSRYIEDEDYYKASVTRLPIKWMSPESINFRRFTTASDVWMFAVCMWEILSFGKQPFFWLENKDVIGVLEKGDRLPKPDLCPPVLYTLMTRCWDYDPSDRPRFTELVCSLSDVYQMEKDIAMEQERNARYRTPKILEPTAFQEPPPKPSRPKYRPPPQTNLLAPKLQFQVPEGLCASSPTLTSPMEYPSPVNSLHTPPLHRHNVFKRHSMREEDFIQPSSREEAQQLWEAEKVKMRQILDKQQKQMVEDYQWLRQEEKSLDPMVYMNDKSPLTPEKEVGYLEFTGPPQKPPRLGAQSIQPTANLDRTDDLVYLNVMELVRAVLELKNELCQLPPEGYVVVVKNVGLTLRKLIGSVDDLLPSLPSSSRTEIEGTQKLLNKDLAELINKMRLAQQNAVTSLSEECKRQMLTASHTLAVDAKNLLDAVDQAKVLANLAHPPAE
# 26S proteasome non-ATPase regulatory subunit 14, sequence (O00487 whole entry): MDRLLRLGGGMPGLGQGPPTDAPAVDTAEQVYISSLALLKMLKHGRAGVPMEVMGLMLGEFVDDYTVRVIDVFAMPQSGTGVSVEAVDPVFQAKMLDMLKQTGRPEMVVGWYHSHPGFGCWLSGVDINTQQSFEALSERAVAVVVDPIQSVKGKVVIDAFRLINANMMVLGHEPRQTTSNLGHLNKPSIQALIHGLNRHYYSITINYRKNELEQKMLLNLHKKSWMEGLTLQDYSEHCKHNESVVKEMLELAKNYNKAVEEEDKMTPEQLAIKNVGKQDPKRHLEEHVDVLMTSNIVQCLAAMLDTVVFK
# Oxytocin receptor, sequence (P30559 whole entry): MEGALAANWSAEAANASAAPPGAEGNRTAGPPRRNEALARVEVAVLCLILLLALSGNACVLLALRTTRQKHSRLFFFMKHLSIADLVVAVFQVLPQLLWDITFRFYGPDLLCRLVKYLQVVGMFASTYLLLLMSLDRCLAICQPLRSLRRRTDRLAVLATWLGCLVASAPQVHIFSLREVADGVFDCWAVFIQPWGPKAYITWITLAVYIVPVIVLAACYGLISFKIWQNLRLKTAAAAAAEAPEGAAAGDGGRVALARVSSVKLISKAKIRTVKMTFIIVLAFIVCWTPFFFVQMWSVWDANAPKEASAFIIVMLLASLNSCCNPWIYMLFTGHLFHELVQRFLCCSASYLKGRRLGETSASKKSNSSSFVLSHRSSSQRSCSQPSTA
# E3 ubiquitin-protein ligase Mdm2, sequence (Q00987 whole entry): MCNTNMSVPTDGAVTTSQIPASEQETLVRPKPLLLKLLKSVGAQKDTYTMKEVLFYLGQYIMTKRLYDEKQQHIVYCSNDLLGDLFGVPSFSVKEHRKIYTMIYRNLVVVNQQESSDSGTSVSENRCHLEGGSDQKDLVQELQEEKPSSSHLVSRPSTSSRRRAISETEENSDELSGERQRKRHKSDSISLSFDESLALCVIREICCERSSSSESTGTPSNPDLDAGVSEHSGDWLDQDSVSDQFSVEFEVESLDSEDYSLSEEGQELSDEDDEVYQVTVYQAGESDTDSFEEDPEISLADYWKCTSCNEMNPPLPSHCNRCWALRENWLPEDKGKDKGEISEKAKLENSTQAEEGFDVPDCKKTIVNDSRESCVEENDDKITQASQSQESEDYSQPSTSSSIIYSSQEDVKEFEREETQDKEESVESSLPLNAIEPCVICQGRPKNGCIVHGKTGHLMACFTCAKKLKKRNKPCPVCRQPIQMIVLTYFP
structure (smiles),measurement,setting,value
O=c1c2cc(Br)ccc2nc(-c2cccc(Cl)c2)n1O,EC50,Streptococcus,2.86 µM (active)
same,EC50,Vasopressin V1a receptor,6.68 µM (active)
same,EC50,Oxytocin receptor,> 9.97 µM (active)
same,EC50,[1],9.44 µM (active)
same,EC50,[2],1.13 µM (active)
O=C(c1cc(-c2ccco2)on1)N1CCc2ccccc2C1,IC50,Estrogen receptor beta [3],> 50 µM (not active)
same,IC50,Estrogen receptor,32.5 µM (not active)
COc1cc2c(cc1OC)CN(C(=O)c1ccco1)CC2,EC50,[4],11.1 µM (not active)
O=C(c1cc2ccccc2oc1=O)N1CCN(c2ccc(N3CCOCC3)nn2)CC1,IC50,[5],> 100 µM (active)
CCOC(=O)/C(=C\c1ccccc1)NC(=O)c1ccccc1,IC50,[5],> 100 µM (active)
CCCNC(=O)c1ccc(-c2nc3ccccc3s2)s1,IC50,Estrogen receptor beta [6],102 µM (not active)
same,IC50,Estrogen receptor beta [3],> 50 µM (not active)
same,IC50,Estrogen receptor,30.3 µM (not active)
same,EC50,[7],10.7 µM (inconclusive)
same,EC50,[8],7.23 µM (active)
COC(=O)c1[nH]c2ccc(C)cc2c1NC(=O)CN1CCCc2ccccc21,IC50,Prothrombin,> 100 µM (inactive)
same,IC50,Estrogen receptor beta [6],1.03 µM (not active)
same,IC50,Estrogen receptor beta [3],< 1.56 µM (active)
same,EC50,cells,0.639 µM (active)
same,IC50,[9],15.2 µM (not active)
same,IC50,[10],16.7 µM (active)
same,EC50,[11],< 0.1 µM (active)
same,EC50,[12],> 60 µM (not active)
same,IC50,[13],> 100 µM (inactive)
